{"source": "patent US20210236442A1", "about": "“METHODS FOR DELAYING OCCURRENCE OF NEW-ONSET TYPE 2 DIABETES AND FOR SLOWING PROGRESSION OF AND TREATING TYPE 2 DIABETES” (Dalcor Pharma UK Ltd., Leatherhead, Zug Branch, priority 2018, published 2021)", "assay_type_in_all_cases": "in vivo, human", "key": {"[1]": {"tested_on": "patients enrolled in the dal-OUTCOMES trial", "assay": "Cox proportional hazards regression of SNP rs1967309 for association with cardiovascular events per treatment arm (dal-OUTCOMES)", "conditions": "for Event (cardiovascular events): 600 mg dalcetrapib arm; for HR (rs1967309, cardiovascular events) / β genetic (rs1967309, cardiovascular events): dalcetrapib arm", "source_text": "Inclusion Criteria: Patients 45 years of age or older who provided written informed consent were eligible to participate if they had been hospitalized for an acute coronary syndrome characterized by elevated cardiac biomarkers, with symptoms of acute myocardial ischemia, ischemic electrocardiographic abnormalities that were new or presumed to be new, or loss of viable myocardium on imaging. Patients without elevated cardiac biomarkers were eligible to participate if symptoms of acute myocardial ischemia were accompanied by electrocardiographic changes that were new or presumed to be new and by additional evidence of obstructive coronary disease. […] However, no specific statin agent or dose was specified, and patients were not excluded if their LDL cholesterol level remained above 100 mg per deciliter. There were no exclusions on the basis of patients' HDL cholesterol level. […] The patients began a single-blind placebo-based run-in period of approximately 4 to 6 weeks to allow for patients to stabilize and for completion of any planned revascularization procedures. At the end of the run-in period, patients in stable condition were randomized in a 1:1 ratio to 600 mg of dalcetrapib or placebo on top of evidence-based medical care for acute cardiovascular syndrome (“ACS”). The descriptive statistics and analyses were performed using SAS 9.4 software.\nCox proportional hazards regression of single nucleotide polymorphism (“SNP”) rs1967309 was conducted for association with cardiovascular events in each treatment arm and in patients with a diagnosis of diabetic at baseline in the dal-OUTCOMES trial and in non-diabetic patients separately without controlling for any covariate, as shown in Table 4. Cox proportional hazards regression of SNP rs1967309 was conducted for association with cardiovascular events in each treatment arm and in diabetic and non-diabetic patients separately controlling for age and sex, as shown in Table 5."}, "[2]": {"tested_on": "patients enrolled in the dal-OUTCOMES trial", "assay": "Repeated measures mixed model regression of treatment arm for fasting plasma glucose and whole-blood HbA1c per genotype and diabetes status", "conditions": "all rs1967309 genotypes, diabetic and non-diabetic, with and without age and sex; except AG diabetic patients", "source_text": "(§1) The effect of ADCY9 rs1967309 genotypes on patient HbA1C and glucose levels was retrospectively assessed in patients enrolled in the dal-OUTCOMES trial.\nInclusion Criteria: Patients 45 years of age or older who provided written informed consent were eligible to participate if they had been hospitalized for an acute coronary syndrome characterized by elevated cardiac biomarkers, with symptoms of acute myocardial ischemia, ischemic electrocardiographic abnormalities that were new or presumed to be new, or loss of viable myocardium on imaging. Patients without elevated cardiac biomarkers were eligible to participate if symptoms of acute myocardial ischemia were accompanied by electrocardiographic changes that were new or presumed to be new and by additional evidence of obstructive coronary disease. […] However, no specific statin agent or dose was specified, and patients were not excluded if their LDL cholesterol level remained above 100 mg per deciliter. There were no exclusions on the basis of patients' HDL cholesterol level. […] The patients began a single-blind placebo-based run-in period of approximately 4 to 6 weeks to allow for patients to stabilize and for completion of any planned revascularization procedures. […]"}, "[3]": {"tested_on": "patients enrolled in the dal-OUTCOMES trial", "assay": "Descriptive statistics of glucose and HbA1c, reported and change from baseline, by genotype and treatment arm", "conditions": "non-diabetic patients irrespective of rs1967309 genotype", "source_text": "as §1\nInclusion Criteria: Patients 45 years of age or older who provided written informed consent were eligible to participate if they had been hospitalized for an acute coronary syndrome characterized by elevated cardiac biomarkers, with symptoms of acute myocardial ischemia, ischemic electrocardiographic abnormalities that were new or presumed to be new, or loss of viable myocardium on imaging. Patients without elevated cardiac biomarkers were eligible to participate if symptoms of acute myocardial ischemia were accompanied by electrocardiographic changes that were new or presumed to be new and by additional evidence of obstructive coronary disease. […] However, no specific statin agent or dose was specified, and patients were not excluded if their LDL cholesterol level remained above 100 mg per deciliter. There were no exclusions on the basis of patients' HDL cholesterol level. […]\nDescriptive statistics of reported and change from baseline of glucose and HbA1C according to the genotype of the SNP rs1967309 were analyzed for each treatment arm and for diabetic and non-diabetic patients separately with non-parametric statistics."}, "[4]": {"tested_on": "patients of the dal-OUTCOMES trial", "assay": "Repeated measures mixed regression of treatment arm for HbA1c, all patients and per genotype (Example 2)", "conditions": "all patients combined and each rs1967309 genotype; with and without covariates", "protocol": "The effect of dalcetrapib on whole-blood HbA1c levels irrespective of genotype and the impact of dalcetrapib on risk of new onset diabetes were retrospectively assessed in patients of the dal-OUTCOMES trial. The descriptive statistics and analyses were performed using SAS 9.4 software."}, "[5]": {"tested_on": "patients of the dal-OUTCOMES trial", "assay": "Cox proportional hazards regression of dalcetrapib treatment arm for association with new onset diabetes", "protocol": "The effect of dalcetrapib on whole-blood HbA1c levels irrespective of genotype and the impact of dalcetrapib on risk of new onset diabetes were retrospectively assessed in patients of the dal-OUTCOMES trial. The descriptive statistics and analyses were performed using SAS 9.4 software. Diabetes at baseline was defined based on at least one of the following patient criteria: (1) diagnosis of diabetics at baseline in the dal-OUTCOMES trial; (2) whole-blood HbA1c level>=6.5% at baseline; (3) fasting glucose level>=7.0 mmol/L at baseline; and (4) use of diabetes medication at or before baseline. New onset diabetes was defined in non-diabetic patients at baseline based on at least one of the following patient criteria: (1) adverse event (AE) preferred terms “type 2 diabetes mellitus” OR “diabetes mellitus” from the AE file that occurred after randomization; (2) use of diabetes medication that was initiated after randomization; (2) at least one whole-blood HbA1c measurement of >=6.5% after randomization; and (4) at least one fasting glucose measurement of >=126 mg/dl or >=7.0 mmol/L after randomization. Cox proportional hazards regression of dalcetrapib treatment arm for association with new onset diabetes was assessed. There were 598 (14%) new onset diabetes cases in the 4173 non-diabetics at baseline."}, "[6]": {"tested_on": "uncontrolled diabetic patients of the dal-OUTCOMES trial", "assay": "Effect of dalcetrapib on whole-blood HbA1c in uncontrolled diabetics", "protocol": "The effect of dalcetrapib in uncontrolled diabetics defined once as HbA1c>7% at baseline or once as >7.5% at baseline was retrospectively assessed in patients of the dal-OUTCOMES trial. The descriptive statistics and analyses were performed using SAS 9.4 software. Two populations of uncontrolled diabetics at baseline were defined: patients having a whole-blood HbA1c level of >7 (n=437) and patients having a whole-blood HbA1c level of >7.5 (n=280)."}, "[7]": {"conditions": "diabetic patients, controlling for age and sex"}, "[8]": {"conditions": "diabetic patients, no covariate"}, "[9]": {"conditions": "non-diabetic patients, controlling for age and sex"}, "[10]": {"conditions": "non-diabetic patients, no covariate"}}, "data": [{"molecule": "CCC(CC)CC1(C(=O)Nc2ccccc2SC(=O)C(C)C)CCCCC1", "note": "[dalcetrapib]", "values": [{"measurement": "SNP rs1967309 as predictor of cardiovascular events in the dalcetrapib arm", "setting": "[1]; diabetic and non-diabetic patients, with and without covariates, significance level of 5%", "value": "predictive of cardiovascular events"}, {"measurement": "Event (cardiovascular events)", "setting": "[1]; diabetic patients, Table 4", "value": 134}, {"measurement": "Event (cardiovascular events)", "setting": "[1]; diabetic patients, Table 5", "value": 134}, {"measurement": "HR (rs1967309, cardiovascular events)", "setting": "[1]; [7]", "value": 0.6631}, {"measurement": "β genetic (rs1967309, cardiovascular events)", "setting": "[1]; [7]", "value": "−0.4108"}, {"measurement": "HR (rs1967309, cardiovascular events)", "setting": "[1]; [8]", "value": 0.6597}, {"measurement": "β genetic (rs1967309, cardiovascular events)", "setting": "[1]; [8]", "value": "−0.4159"}, {"measurement": "Event (cardiovascular events)", "setting": "[1]; non-diabetic patients, Table 4", "value": 255}, {"measurement": "Event (cardiovascular events)", "setting": "[1]; non-diabetic patients, Table 5", "value": 255}, {"measurement": "HR (rs1967309, cardiovascular events)", "setting": "[1]; [9]", "value": 0.6366}, {"measurement": "β genetic (rs1967309, cardiovascular events)", "setting": "[1]; [9]", "value": "−0.4516"}, {"measurement": "HR (rs1967309, cardiovascular events)", "setting": "[1]; [10]", "value": 0.6400}, {"measurement": "β genetic (rs1967309, cardiovascular events)", "setting": "[1]; [10]", "value": "−0.4462"}, {"measurement": "significance of dalcetrapib treatment arm for outcome HbA1c", "setting": "[2]", "value": "significant"}, {"measurement": "HbA1c change from baseline compared to placebo", "setting": "[3]", "value": "greater reductions in HbA1c"}, {"measurement": "whole-blood level of HbA1c with dalcetrapib treatment compared to placebo", "setting": "[3]", "value": "systematically lower"}, {"measurement": "dalcetrapib treatment arm as predictor of HbA1c", "setting": "[4]", "value": "significant predictor of reduced HbA1c"}, {"measurement": "effect of dalcetrapib on new onset diabetes", "setting": "[5]; non-diabetic patients at baseline", "value": "trend for a protective effect"}, {"measurement": "association of new onset diabetes with dalcetrapib treatment arm", "setting": "[5]; non-diabetic patients at baseline, all combined and each genotype, P<0.05, with and without covariates", "value": "not found to be significantly associated"}, {"measurement": "association with treatment arm", "setting": "[5]; patients with diabetes at baseline and AA genotype, with and without covariates, patients with events n=27", "value": "significant association with treatment arm"}, {"measurement": "association of treatment arm (dalcetrapib versus placebo) with whole-blood HbA1c at M06", "setting": "[6]; HbA1c >7 at baseline, genotype rs1967309/AA, without adjustment for covariates, significance level 5%", "value": "associated with a decrease in whole-blood HbA1c"}, {"measurement": "repeated measures analysis, natural logarithm of HbA1C at 6, 12 and 24 months", "setting": "[6]; uncontrolled diabetic patients, mixed regression models", "value": "confirmed by repeated measures analysis"}, {"measurement": "mean ln(HbA1c) in the dalcetrapib treatment arm", "setting": "[6]; uncontrolled diabetics, versus placebo arm", "value": "lower than in the placebo arm"}]}]}
